Measurements as given in patent US10125098B2, “Therapeutic compounds and methods of use thereof” (GENENTECH, INC., priority 2014, dated 2018).
Structures can show the parent of a compound that is named as a salt. Where two headings read alike, the source gives them in different places.

Assays:
human NaV1.7 = molecular target: T1, human NaV1.7 (Homo sapiens, UniProt Q15858); experiment: Patch voltage clamp electrophysiology assay (EP), NaV1.7; assay type: cell-based; settings: HEK-293 cells stably expressing NaV1.7 with β1 subunit; whole-cell patch clamp, membrane potential −60 mV (inactivated state)
T1 construct: permanently transfected with an expression vector containing the full-length cDNA coding for the desired human sodium channel α-subunit; expressed in transfected cells; host or cells: HEK-293
T1 sequence (Q15858 1-1977 isoform Q15858-3): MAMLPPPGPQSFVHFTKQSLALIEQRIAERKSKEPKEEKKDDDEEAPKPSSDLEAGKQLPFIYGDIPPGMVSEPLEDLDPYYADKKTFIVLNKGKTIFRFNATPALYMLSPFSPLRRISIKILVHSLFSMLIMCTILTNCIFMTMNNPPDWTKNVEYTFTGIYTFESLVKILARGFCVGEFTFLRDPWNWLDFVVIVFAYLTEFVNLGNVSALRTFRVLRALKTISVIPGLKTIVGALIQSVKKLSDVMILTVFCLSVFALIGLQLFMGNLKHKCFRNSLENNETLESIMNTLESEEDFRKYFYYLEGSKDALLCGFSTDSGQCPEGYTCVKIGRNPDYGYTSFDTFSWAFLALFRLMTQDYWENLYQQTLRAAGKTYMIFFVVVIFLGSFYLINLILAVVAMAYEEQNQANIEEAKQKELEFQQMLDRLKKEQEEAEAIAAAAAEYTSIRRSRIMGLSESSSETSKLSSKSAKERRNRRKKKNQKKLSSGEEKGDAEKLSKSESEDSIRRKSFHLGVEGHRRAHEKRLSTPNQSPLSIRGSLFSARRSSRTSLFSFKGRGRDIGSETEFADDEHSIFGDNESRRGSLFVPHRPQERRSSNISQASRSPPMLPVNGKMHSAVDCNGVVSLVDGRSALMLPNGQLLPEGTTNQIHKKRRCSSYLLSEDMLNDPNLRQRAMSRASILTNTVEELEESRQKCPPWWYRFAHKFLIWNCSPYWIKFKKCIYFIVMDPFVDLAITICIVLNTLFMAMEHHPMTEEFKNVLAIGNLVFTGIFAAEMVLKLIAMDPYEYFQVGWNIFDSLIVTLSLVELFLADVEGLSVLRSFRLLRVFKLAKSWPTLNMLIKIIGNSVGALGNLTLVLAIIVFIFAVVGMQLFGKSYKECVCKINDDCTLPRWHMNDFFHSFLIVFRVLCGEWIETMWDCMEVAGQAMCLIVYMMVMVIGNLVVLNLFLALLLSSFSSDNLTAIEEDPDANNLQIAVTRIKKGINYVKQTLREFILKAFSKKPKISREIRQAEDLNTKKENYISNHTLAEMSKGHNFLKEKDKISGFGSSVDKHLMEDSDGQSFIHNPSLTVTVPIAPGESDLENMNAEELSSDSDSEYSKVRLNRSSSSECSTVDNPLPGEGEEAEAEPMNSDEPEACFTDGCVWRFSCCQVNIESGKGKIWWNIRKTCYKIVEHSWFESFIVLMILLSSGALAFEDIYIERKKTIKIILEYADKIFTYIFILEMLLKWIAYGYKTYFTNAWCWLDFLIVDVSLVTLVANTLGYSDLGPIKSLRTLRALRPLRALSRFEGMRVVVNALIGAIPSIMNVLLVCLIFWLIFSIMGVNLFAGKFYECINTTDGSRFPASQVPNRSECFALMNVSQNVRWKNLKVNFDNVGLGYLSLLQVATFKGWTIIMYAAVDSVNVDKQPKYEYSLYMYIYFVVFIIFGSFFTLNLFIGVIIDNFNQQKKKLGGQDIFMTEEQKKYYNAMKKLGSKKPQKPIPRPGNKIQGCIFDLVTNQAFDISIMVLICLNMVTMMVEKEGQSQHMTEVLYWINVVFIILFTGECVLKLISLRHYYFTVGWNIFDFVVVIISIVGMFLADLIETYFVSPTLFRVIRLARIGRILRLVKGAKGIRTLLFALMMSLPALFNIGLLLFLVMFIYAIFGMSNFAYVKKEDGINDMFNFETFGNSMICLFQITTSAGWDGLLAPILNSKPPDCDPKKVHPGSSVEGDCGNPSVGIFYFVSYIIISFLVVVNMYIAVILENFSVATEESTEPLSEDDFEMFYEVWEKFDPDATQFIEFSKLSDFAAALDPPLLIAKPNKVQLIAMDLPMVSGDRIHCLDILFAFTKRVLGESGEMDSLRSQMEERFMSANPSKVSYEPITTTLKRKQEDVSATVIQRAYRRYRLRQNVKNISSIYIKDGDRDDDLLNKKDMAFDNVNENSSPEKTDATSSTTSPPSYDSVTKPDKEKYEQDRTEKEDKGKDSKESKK
T1 sequence (Q07699 19-218 partner): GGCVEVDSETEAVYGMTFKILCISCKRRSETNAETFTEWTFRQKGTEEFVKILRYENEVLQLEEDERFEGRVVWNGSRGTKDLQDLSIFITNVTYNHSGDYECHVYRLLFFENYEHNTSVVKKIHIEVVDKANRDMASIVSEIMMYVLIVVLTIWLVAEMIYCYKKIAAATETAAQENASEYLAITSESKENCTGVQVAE
Method in brief: (§1)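 Percent block is the drop in sodium current after compound wash-on, measured by a test pulse following 20 ms at −150 mV from a −60 mV inactivating holding potential.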

NaV1.5 = molecular target: T2, NaV1.5 (Homo sapiens, UniProt Q14524); experiment: Patch voltage clamp electrophysiology assay (EP), NaV1.5; assay type: cell-based
T2 construct: permanently transfected with an expression vector containing the full-length cDNA coding for the desired human sodium channel α-subunit; expressed in transfected cells; host or cells: HEK-293
T2 sequence (Q14524 whole entry): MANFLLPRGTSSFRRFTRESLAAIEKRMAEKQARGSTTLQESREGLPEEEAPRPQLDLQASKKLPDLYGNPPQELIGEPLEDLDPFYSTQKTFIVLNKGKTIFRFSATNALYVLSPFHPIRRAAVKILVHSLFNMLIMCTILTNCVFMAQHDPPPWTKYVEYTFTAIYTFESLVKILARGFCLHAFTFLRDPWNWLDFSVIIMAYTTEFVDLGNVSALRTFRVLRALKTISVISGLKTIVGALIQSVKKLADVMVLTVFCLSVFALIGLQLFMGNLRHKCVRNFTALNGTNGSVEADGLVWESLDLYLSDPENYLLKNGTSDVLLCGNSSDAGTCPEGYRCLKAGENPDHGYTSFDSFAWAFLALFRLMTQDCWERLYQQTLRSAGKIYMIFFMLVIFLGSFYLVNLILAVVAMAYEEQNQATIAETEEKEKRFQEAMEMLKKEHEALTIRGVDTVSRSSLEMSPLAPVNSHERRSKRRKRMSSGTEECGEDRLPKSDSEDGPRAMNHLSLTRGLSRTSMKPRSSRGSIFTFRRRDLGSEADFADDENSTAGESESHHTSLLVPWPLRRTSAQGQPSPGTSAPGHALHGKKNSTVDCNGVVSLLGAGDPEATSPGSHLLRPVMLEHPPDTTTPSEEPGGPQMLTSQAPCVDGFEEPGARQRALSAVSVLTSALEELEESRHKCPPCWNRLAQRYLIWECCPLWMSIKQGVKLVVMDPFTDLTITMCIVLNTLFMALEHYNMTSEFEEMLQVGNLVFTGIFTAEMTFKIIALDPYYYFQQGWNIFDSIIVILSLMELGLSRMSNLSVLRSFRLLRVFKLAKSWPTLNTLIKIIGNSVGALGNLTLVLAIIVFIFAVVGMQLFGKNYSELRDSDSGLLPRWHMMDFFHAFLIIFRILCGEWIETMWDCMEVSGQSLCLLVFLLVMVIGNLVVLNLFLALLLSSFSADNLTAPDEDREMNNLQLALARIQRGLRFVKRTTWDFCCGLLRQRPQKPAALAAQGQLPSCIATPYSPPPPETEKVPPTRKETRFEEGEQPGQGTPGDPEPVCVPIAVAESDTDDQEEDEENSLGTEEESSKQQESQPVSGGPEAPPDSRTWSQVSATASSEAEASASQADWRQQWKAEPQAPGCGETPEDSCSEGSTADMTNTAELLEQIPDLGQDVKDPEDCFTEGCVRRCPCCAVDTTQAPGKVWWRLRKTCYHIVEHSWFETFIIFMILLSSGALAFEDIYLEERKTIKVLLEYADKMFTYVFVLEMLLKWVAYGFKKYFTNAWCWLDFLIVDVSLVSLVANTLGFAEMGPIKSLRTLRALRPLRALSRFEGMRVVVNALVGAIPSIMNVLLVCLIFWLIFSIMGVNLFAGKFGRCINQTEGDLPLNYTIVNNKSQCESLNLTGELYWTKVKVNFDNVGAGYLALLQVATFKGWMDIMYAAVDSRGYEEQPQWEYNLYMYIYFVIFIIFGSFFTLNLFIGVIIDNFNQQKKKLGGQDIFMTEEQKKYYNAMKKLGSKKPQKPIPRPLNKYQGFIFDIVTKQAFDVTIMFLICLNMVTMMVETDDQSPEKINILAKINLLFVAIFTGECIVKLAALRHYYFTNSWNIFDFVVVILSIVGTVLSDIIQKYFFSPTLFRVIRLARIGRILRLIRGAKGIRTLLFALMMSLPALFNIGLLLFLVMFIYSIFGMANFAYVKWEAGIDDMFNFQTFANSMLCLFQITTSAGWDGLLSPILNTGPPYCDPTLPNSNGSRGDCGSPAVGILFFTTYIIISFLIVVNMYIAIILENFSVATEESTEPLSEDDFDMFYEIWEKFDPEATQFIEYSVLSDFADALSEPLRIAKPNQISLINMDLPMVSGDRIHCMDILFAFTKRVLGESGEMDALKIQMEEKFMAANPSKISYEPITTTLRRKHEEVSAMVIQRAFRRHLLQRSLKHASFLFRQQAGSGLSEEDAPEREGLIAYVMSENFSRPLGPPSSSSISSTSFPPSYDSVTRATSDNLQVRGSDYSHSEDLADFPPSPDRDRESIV
Method in brief: as §1

hNav1.7 = molecular target: T3, hNav1.7 (Homo sapiens, UniProt Q15858); experiment: Tritiated compound binding (LBA) to membranes from cells expressing hNav1.7 and the β1 subunit, competitive binding; settings: competitive binding vs 100 pM [3H]compound, 18 h, room temperature, membranes with hNav1.7 and β1 subunit
T3 construct: expressed in transfected cells
T3 sequence (Q15858 1-1977 isoform Q15858-3): as the sequence (Q15858 1-1977 isoform Q15858-3) above
T3 sequence (Q07699 19-218 partner): as the sequence (Q07699 19-218 partner) above
Method in brief: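 Competitive displacement of 100 pM [3H]compound (tritiated methyl analogue of formula (I)) from hNav1.7/β1 membranes, 18 h at room temperature in NaCl/Tris pH 7.4 buffer containing 0.01% BSA. 1 μM unlabeled compound set non-specific binding. Bound label quantified by scintillation after filtration; 4-parameter fit gave IC50.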

[1] = HEK-293 cells stably expressing NaV1.5 with β1 subunit, whole-cell patch clamp, membrane potential −60 mV (inactivated state), read-out: Nav1.5
[2] = human, HEK-293 cells stably expressing human NaV1.5 with β1 subunit, pH 7.4, HEK-293 cells stably expressing NaV1.5 with β1 subunit, whole-cell patch clamp, membrane potential −60 mV (inactivated state)

SMILES	IC50 (human NaV1.7) [µM]	IC50 (NaV1.5; [1]) [µM]	IC50 (hNav1.7) [µM]	IC50 (NaV1.5; [2]) [µM]	IC50 (NaV1.5) [µM]
CC1(COc2cc(F)c(C(=O)N3CCC[C@H]3C(=O)O)cc2C2CC2)CN(C(c2ccccc2)c2cc(Cl)cc(Cl)c2)C1 (stereo partly drawn) [Example 196, (2S)-1-(5-cyclopropyl-4-((1-((3,5-dichlorophenyl)(phenyl)methyl)-3-methylazetidin-3-yl)methoxy)-2-fluorobenzoyl)pyrrolidine-2-carboxylic acid trifluoroacetate]	1.4	13	0.018	–	–
O=C(O)[C@@H]1CCCN1C(=O)c1cc(C2CC2)c(OCC2CCN(Cc3nc(-c4ccccc4Cl)no3)CC2)cc1F [Example 197, (S)-1-(4-((1-((3-(2-chlorophenyl)-1,2,4-oxadiazol-5-yl)methyl)piperidin-4-yl)methoxy)-5-cyclopropyl-2-fluorobenzoyl)pyrrolidine-2-carboxylic acid trifluoroacetate]	3.9	–	0.63	≥ 30	–
O=C(O)[C@@H]1CCC(=O)N1C(=O)c1cc(C2CC2)c(OCC23CC4CC(CC(C4)C2)C3)cc1F [Example 198, (S)-1-(4-(adamantan-1-ylmethoxy)-5-cyclopropyl-2-fluorobenzoyl)-5-oxopyrrolidine-2-carboxylic acid]	4.5	18	1.1	–	–
O=C(NO)[C@@H]1C[C@@H](F)CN1C(=O)c1cc(C2CC2)c(OCC23CC4CC(CC(C4)C2)C3)cc1F [Example 199, 1-(4-(adamantan-1-ylmethoxy)-5-cyclopropyl-2-fluorobenzoyl)-4-fluoro-N-hydroxypyrrolidine-2-carboxamide]	3.6	15	0.47	–	–
O=C(O)[C@@H]1CC2(CC2)CN1C(=O)c1cc(C2CC2)c(OCC23CC4CC(CC(C4)C2)C3)cc1F [Example 200, (S)-5-(4-(adamantan-1-ylmethoxy)-5-cyclopropyl-2-fluorobenzoyl)-5-azaspiro[2.4]heptane-6-carboxylic acid]	0.79	–	0.084	–	12
O=C(c1cc(C2CC2)c(OCC23CC4CC(CC(C4)C2)C3)cc1F)N1C[C@H](F)C[C@H]1C(O)(C(F)(F)F)C(F)(F)F [Example 201, (4-(adamantan-1-ylmethoxy)-5-cyclopropyl-2-fluorophenyl)((2S,4R)-4-fluoro-2-(1,1,1,3,3,3-hexafluoro-2-hydroxypropan-2-yl)pyrrolidin-1-yl)methanone]	13	24	≥ 10	–	–
CC1(C)[C@@H]2[C@@H](C(=O)O)N(C(=O)c3cc(C4CC4)c(OCC45CC6CC(CC(C6)C4)C5)cc3F)C[C@@H]21 [Example 202, (1R,2S,5S)-3-(4-(adamantan-1-ylmethoxy)-5-cyclopropyl-2-fluorobenzoyl)-6,6-dimethyl-3-azabicyclo[3.1.0]hexane-2-carboxylic acid]	4.4	16	1.9	–	–
O=C(O)[C@@H]1C=C(C(F)(F)F)CN1C(=O)c1cc(C2CC2)c(OCC23CC4CC(CC(C4)C2)C3)cc1F [Example 203]	10	19	≥ 10	–	–
O=C(O)[C@@H]1C[C@@H](F)CN1C(=O)c1c(F)cc(OCC23CC4CC(CC(C4)C2)C3)cc1C1CC1 [Example 204, (2S,4R)-1-(4-(adamantan-1-ylmethoxy)-2-cyclopropyl-6-fluorobenzoyl)-4-fluoropyrrolidine-2-carboxylic acid]	7.8	23	0.56	–	–
CO[C@H]1CN(C(=O)c2cc(C3CC3)c(OCC34CC5CC(CC(C5)C3)C4)cc2F)[C@H](C(=O)O)C1C (stereo partly drawn) [Example 205, (2S,4R)-1-(4-(adamantan-1-ylmethoxy)-5-cyclopropyl-2-fluorobenzoyl)-4-methoxy-3-methylpyrrolidine-2-carboxylic acid]	2.2	25	0.17	–	–
O=C(O)C[C@@H]1CCCN1C(=O)c1cc(C2CC2)c(OCC23CC4CC(CC(C4)C2)C3)cc1F [Example 206, 2-((S)-1-(4-(adamantan-1-ylmethoxy)-5-cyclopropyl-2-fluorobenzoyl)pyrrolidin-2-yl)acetic acid]	2.6	16	0.26	–	–
CO[C@@H]1CN(C(=O)c2cc(C3CC3)c(OCC34CC5CC(CC(C5)C3)C4)cc2F)[C@H](C(=O)O)[C@H]1C [Example 207, (2S,3R,4S)-1-(4-(adamantan-1-ylmethoxy)-5-cyclopropyl-2-fluorobenzoyl)-4-methoxy-3-methylpyrrolidine-2-carboxylic acid]	0.38	16	0.036	–	–
CC1[C@H](O)CN(C(=O)c2cc(C3CC3)c(OCC3(F)CCN([C@@H](C)c4cc(Cl)cc(Cl)c4)CC3)cc2F)[C@@H]1C(=O)O (stereo partly drawn) [Example 208, (2S,4S)-1-(5-Cyclopropyl-4-((1-((S)-1-(3,5-dichlorophenyl)ethyl)-4-fluoropiperidin-4-yl)methoxy)-2-fluorobenzoyl)-4-hydroxy-3-methylpyrrolidine-2-carboxylic acid]	0.21	16	0.082	–	–
CC1[C@@H](C(=O)O)N(C(=O)c2cc(C3CC3)c(OCC3(F)CCN([C@@H](C)c4cc(Cl)cc(Cl)c4)CC3)cc2F)C[C@@H]1F (stereo partly drawn) [Example 209, (2S,4R)-1-(5-cyclopropyl-4-((1-((S)-1-(3,5-dichlorophenyl)ethyl)-4-fluoropiperidin-4-yl)methoxy)-2-fluorobenzoyl)-4-fluoro-3-methylpyrrolidine-2-carboxylic acid]	0.7	20	0.2	–	–
C[C@@H]1[C@H](F)CN(C(=O)c2cc(C3CC3)c(OCC34CC5CC(CC(C5)C3)C4)cc2F)[C@@H]1C(=O)O [Example 210a, (2S,3S,4S)-1-(4-(adamantan-1-ylmethoxy)-5-cyclopropyl-2-fluorobenzoyl)-4-fluoro-3-methylpyrrolidine-2-carboxylic acid]	1.9	27	0.22	–	–
C[C@H]1[C@H](F)CN(C(=O)c2cc(C3CC3)c(OCC34CC5CC(CC(C5)C3)C4)cc2F)[C@@H]1C(=O)O [Example 210b, (2S,3R,4S)-1-(4-(adamantan-1-ylmethoxy)-5-cyclopropyl-2-fluorobenzoyl)-4-fluoro-3-methylpyrrolidine-2-carboxylic acid]	0.81	17	0.03	–	–
O=C(O)[C@@H]1C[C@H](C(F)(F)F)CN1C(=O)c1cc(C2CC2)c(OCC23CC4CC(CC(C4)C2)C3)cc1F [Example 211, (2S,4S)-1-(4-((adamantan-1-yl)methoxy)-5-cyclopropyl-2-fluorobenzoyl)-4-(trifluoromethyl)pyrrolidine-2-carboxylic acid]	6.7	14	2.3	–	–
O=C(c1cc(C2CC2)c(OCC23CC4CC(CC(C4)C2)C3)cc1F)N1CCC2CC21C(=O)O (stereo not drawn) [Example 212, 2-(4-((Adamantan-1-yl)methoxy)-5-cyclopropyl-2-fluorobenzoyl)-2-azabicyclo[3.1.0]hexane-1 carboxylicacid]	3.5	17	0.29	–	–
O=C(O)[C@@H]1CC(O)(C(F)(F)F)CN1C(=O)c1cc(C2CC2)c(OCC23CC4CC(CC(C4)C2)C3)cc1F (stereo partly drawn) [Example 213, (2S)-1-(4-((adamantan-1-yl)methoxy)-5-cyclopropyl-2-fluorobenzoyl)-4-hydroxy-4-(trifluoromethyl)pyrrolidine-2-carboxylic acid]	3.4	7.6	5.3	–	–
COC1(C(F)(F)F)C[C@@H](C(=O)O)N(C(=O)c2cc(C3CC3)c(OCC34CC5CC(CC(C5)C3)C4)cc2F)C1 (stereo partly drawn) [Example 214, (2S)-1-(4-((Adamantan-1-yl)methoxy)-5-cyclopropyl-2-fluorobenzoyl)-4-methoxy-4-(trifluoromethyl)pyrrolidine-2-carboxylic acid]	8.2	11	9.7	–	–
O=C(O)C[C@@H]1CCN1C(=O)c1cc(C2CC2)c(OCC23CC4CC(CC(C4)C2)C3)cc1F [Example 215, 2-((S)-1-(4-((adamantan-1-yl)methoxy)-5-cyclopropyl-2-fluorobenzoyl)azetidin-2-yl)acetic acid]	5.4	–	1.1	≥ 30	–
CC(C)[C@H](NC(=O)c1cc(C2CC2)c(OCC2(F)CCN(Cc3cc(Cl)cc(C(F)(F)F)c3)CC2)cc1F)C(=O)O [Example 216, (4-((1-(3-Chloro-5-(trifluoromethyl)benzyl)-4-fluoropiperidin-4-yl)methoxy)-5-cyclopropyl-2-fluorobenzoyl)-L-valine]	8.6	–	0.6	≥ 30	–
CC1(O)C[C@@H](C(=O)O)N(C(=O)c2cc(C3CC3)c(OCC34CC5CC(CC(C5)C3)C4)cc2F)C1 (stereo partly drawn) [Example 218, (2S)-1-(4-(adamantan-1-ylmethoxy)-5-cyclopropyl-2-fluorobenzoyl)-4-hydroxy-4-methylpyrrolidine-2-carboxylic acid]	1.6	24	0.23	–	–
